Results as given in patent US9187424B1, “Aryl dihydropyridinones and piperidinone MGAT2 inhibitors” (Bristol-Myers Squibb Company, priority 2011, dated 2015).

Experiments:
[1] = molecular target: T1, Human MGAT-2 (Homo sapiens (Human), UniProt Q3SYC2); assay: MGAT SPA Assay; type: biochemical; conditions: membranes from Sf9 cells expressing recombinant human MGAT2; 2-monooleoylglycerol and [3H]-oleoyl-CoA;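 note: inhibition scaled between DMSO vehicle as full MGAT2 activity and membranes of uninfected Sf9 cells as blank, IC50 fitted by logistic curve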
[2] = molecular target: T1, Human MGAT-2; assay: MGAT LCMS Assay (human MGAT-2); type: biochemical; conditions: human MGAT-2 membranes expressed in Sf9 cells; 2-oleoylglycerol and oleoyl-Coenzyme A; read-out: h-MGAT2 IC50 (nM) LCMS Assay;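 note: diolein product quantified by LC/MS with positive APCI, expressed as peak area ratio versus an internal standard, and this ratio used to derive IC50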

T1 sequence (Q3SYC2 whole entry): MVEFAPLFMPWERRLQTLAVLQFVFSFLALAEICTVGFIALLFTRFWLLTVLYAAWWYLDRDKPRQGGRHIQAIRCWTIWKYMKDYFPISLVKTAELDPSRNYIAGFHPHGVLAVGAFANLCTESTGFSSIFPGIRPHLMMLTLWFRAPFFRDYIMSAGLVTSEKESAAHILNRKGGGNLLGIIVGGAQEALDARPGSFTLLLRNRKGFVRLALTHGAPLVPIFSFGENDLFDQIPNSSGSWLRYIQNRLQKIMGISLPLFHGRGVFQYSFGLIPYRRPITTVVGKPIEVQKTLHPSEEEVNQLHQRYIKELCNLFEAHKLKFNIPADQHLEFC

SMILES	IC50 [1]	IC50 [2]
Cc1ccc(C2=C(C#N)C(=O)NC(c3ccc(OCC(F)(F)F)cc3)(C(F)(F)F)C2)cc1 (stereo not shown) [Example 89]	731 nM	20 nM
COc1ccc(C2=C(C#N)C(=O)NC(c3ccc(OCCCC(F)(F)F)cc3)(C(F)(F)F)C2)c(F)c1 (stereo not shown) [Example 91]	916 nM	2 nM
O=C1NC(c2ccc(OCCCC(F)(F)F)cc2)(C(F)(F)F)CC(c2ccc(C(F)(F)F)cc2)=C1c1nn[nH]n1 (stereo not shown) [Example 98]	154 nM	69 nM
O=C1NC(c2ccc(OCCCC(F)(F)F)cc2)(C(F)(F)F)CC(c2ccc(Cl)cc2)=C1c1nn[nH]n1 (stereo not shown) [Example 101]	379 nM	108 nM
Cc1ccc(C2=C(NC(=O)c3ccccc3C)C(=O)N[C@@](c3ccc(OCCCC(F)(F)F)cc3)(C(F)(F)F)C2)cc1 [Example 105, (S)-2-Methyl-N-(2-oxo-4-p-tolyl-6-(4-(4,4,4-trifluorobutoxyl)phenyl)-6-(trifluoromethyl)-1,2,5,6-tetrahydropyridin-3-yl)benzamide]	672 nM	24 nM
Cc1ccc(C2=C(c3nn[nH]n3)C(=O)NC(c3ccc(Br)cc3)(C(F)(F)F)C2)cc1 (stereo not shown) [Example 112]	1300 nM	204 nM
Cc1ccc(C2=C(C(=O)Nc3nn[nH]n3)C(=O)NC(c3ccc(C4=CCCC4)cc3)(C(F)(F)F)C2)cc1 (stereo not shown) [Example 126]	1870 nM	33 nM
Cc1ccc(C2=C(C(=O)Nc3nn[nH]n3)C(=O)NC(c3cccc(C4=CCCCC4)c3)(C(F)(F)F)C2)cc1 (stereo not shown) [Example 127]	655 nM	10 nM
COc1ccc(NC(=O)C2=C(c3ccc(C)cc3)C(F)(F)C(c3ccc(OCCC(F)(F)F)cc3)(C(F)(F)F)NC2=O)cc1 (stereo not shown) [Example 133]	1520 nM	127 nM
COc1ccc(C2=C(n3cnnn3)C(=O)NC(c3ccc(OCCCC(F)(F)F)cc3)(C(F)(F)F)C2)cc1 (stereo not shown) [Example 143]	156 nM	4 nM
N#CC1=C(c2ccc3ccccc3c2)CC(c2ccc(OCCCC(F)(F)F)cc2)(C(F)(F)F)NC1=O (stereo not shown) [Example 146]	397 nM	25 nM
Cc1ccc(C2=C(NC(=O)c3oncc3C)C(=O)NC(c3ccc(OCCCC(F)(F)F)cc3)(C(F)(F)F)C2)cc1 (stereo not shown) [Example 157]	168 nM	84 nM
Cc1ccc(C2=C(NC(=O)c3ccc(Cl)nn3)C(=O)NC(c3ccc(OCCCC(F)(F)F)cc3)(C(F)(F)F)C2)cc1 (stereo not shown) [Example 158]	302 nM	75 nM
COc1ccc(C(=O)NC2=C(c3ccc(C)cc3)C(F)(F)C(c3ccc(OCCCC(F)(F)F)cc3)(C(F)(F)F)NC2=O)cc1 (stereo not shown) [Example 163]	1180 nM	47 nM
CCCCCCCNC(=O)C1(C)CC(c2ccc(C)cc2)=C(C(=O)Nc2ccc(OC)cc2)C(=O)N1 (stereo not shown) [Example 166]	237 nM	102 nM
Cc1ccc(C2=C(NC(=O)c3cc(F)ccc3Cl)C(=O)NC(c3ccc(OCCCC(F)(F)F)cc3)(C(F)(F)F)C2)cc1 (stereo not shown) [Example 171]	724 nM	57 nM
CCCCCCCCNC(=O)C1(C)CC(c2ccc(C)cc2)=C(C(=O)Nc2ccc(OC)cc2)C(=O)N1 (stereo not shown) [Example 174]	237 nM	60 nM

Stronger by IC50 [1], values ahead:

IC50 [1]	IC50 [2]	SMILES
28 nM	5 nM	COc1ccc(NC(=O)C2=C(c3ccc(C)cc3)CC(c3ccc(OCC(F)(F)F)cc3)(C(F)(F)F)NC2=O)cc1 (stereo not shown) [Example 88]
37 nM	30 nM	O=C1NC(c2ccc(OCCCC(F)(F)F)cc2)(C(F)(F)F)CC(c2ccc(OC(F)F)cc2)=C1c1nn[nH]n1 (stereo not shown) [Example 93]
32 nM	4 nM	Cc1ccc(C2=C(c3ccc(OC(F)(F)F)cc3)C(=O)NC(c3ccc(OCCCC(F)(F)F)cc3)(C(F)(F)F)C2)cc1 (stereo not shown) [Example 94]
95 nM	43 nM	COc1ccc(C2=C(c3nn[nH]n3)C(=O)NC(c3ccc(OCCCC(F)(F)F)cc3)(C(F)(F)F)C2)c(F)c1 (stereo not shown) [Example 95]
9 nM	7 nM	Cc1ccc(C2=C(C(=O)Nc3ccc(-c4nnn[nH]4)nc3)C(=O)NC(c3ccc(OCCCC(F)(F)F)cc3)(C(F)(F)F)C2)cc1 (stereo not shown) [Example 111]
32 nM	4 nM	Cc1ccc(C2=C(c3nn[nH]n3)C(=O)NC(c3ccc(OCCCC(F)(F)C(F)(F)F)cc3)(C(F)(F)F)C2)cc1 (stereo not shown) [Example 118]
14 nM	1 nM	Cc1ccc(C2=C(C(=O)Nc3ccc(O)cc3)C(=O)NC(c3ccc(OCCCC(F)(F)F)cc3)(C(F)(F)F)C2)cc1 (stereo not shown) [Example 122]
20 nM	1 nM	Cc1ccc(C2=C(C(=O)Nc3ccno3)C(=O)NC(c3ccc(OCCC(F)(F)F)cc3)(C(F)(F)F)C2)cc1 (stereo not shown) [Example 130]
93 nM	10 nM	COc1ccc(C2=C(n3cnnn3)C(=O)NC(c3ccc(OCCCC(F)(F)F)cc3)(C(F)(F)F)C2)c(F)c1 (stereo not shown) [Example 142]
102 nM	9 nM	COc1ccc(NC(=O)C2=C(c3ccc(C)cc3C)CC(c3ccc(OCCCC(F)(F)F)cc3)(C(F)(F)F)NC2=O)cc1 (stereo not shown) [Example 148]
53 nM	6 nM	O=C1NC(c2ccc(OCCCC(F)(F)F)cc2)(C(F)(F)F)CC(c2ccc(OC(F)F)cc2)=C1n1cnnn1 (stereo not shown) [Example 149]
11 nM	3 nM	Cc1ccc(C2=C(NC(=O)c3cc(C)no3)C(=O)NC(c3ccc(OCCCC(F)(F)F)cc3)(C(F)(F)F)C2(F)F)cc1 (stereo not shown) [Example 150]
34 nM	8 nM	Cc1ccc(C2=C(NC(=O)c3nnc(C)o3)C(=O)NC(c3ccc(OCCCC(F)(F)F)cc3)(C(F)(F)F)C2)cc1 (stereo not shown) [Example 154]
60 nM	8 nM	Cc1ccc(C2=C(C(=O)Nc3ccc(F)cc3)C(=O)NC(c3ccc(Oc4ccccc4)cc3)(C(F)(F)F)C2)cc1 (stereo not shown) [Example 165]
8 nM	2 nM	O=C1NC(c2ccc(OCCCC(F)(F)F)cc2)(C(F)(F)F)CC(c2ccc(OC(F)F)cc2)=C1NC(=O)c1ccno1 (stereo not shown) [Example 167]
16 nM	3 nM	CCCCOc1ccc(C2(C(F)(F)F)CC(c3ccc(OC)cc3)=C(NC(=O)c3ccno3)C(=O)N2)cc1 (stereo not shown) [Example 172]
43 nM	63 nM	CCCCCCCCCCCCCCCCNC(=O)C1(C)CC(c2ccc(C)cc2)=C(C(=O)Nc2ccc(OC)cc2)C(=O)N1 (stereo not shown) [Example 173]
47 nM	78 nM	COc1ccc(NC(=O)C2=C(c3ccc(C)cc3)CC(C)(C(=O)NCCCCc3ccccc3)NC2=O)cc1 (stereo not shown) [Example 178]
24 nM	2 nM	Cc1ccc(C2=C(NC(=O)c3cc(Br)no3)C(=O)NC(c3ccc(OCCCC(F)(F)F)cc3)(C(F)(F)F)C2)cc1 (stereo not shown) [Example 179]
36 nM	30 nM	Cc1ccc(C2=C(NC(=O)c3cc(OCc4ccccc4)no3)C(=O)NC(c3ccc(OCCCC(F)(F)F)cc3)(C(F)(F)F)C2)cc1 (stereo not shown) [Example 180]
21 nM	10 nM	COc1cnc(NC(=O)C2=C(c3ccc(C)cc3)CC(c3ccc(OCCCCC(F)(F)F)cc3)(C(F)(F)F)NC2=O)cn1 (stereo not shown) [Example 273]
